# In paper PMC6005030, “The c-Abl inhibitor, Radotinib HCl, is neuroprotective in a preclinical Parkinson’s disease mouse model” (Human Molecular Genetics, 2018):
# Structures can show the parent of a compound that is named as a salt.
# Experiments:
# [1] = system: α-synuclein PFF mouse model of sporadic PD; test: α-synuclein PFF mouse model: behavioral tests (pole, grip strength, amphetamine rotation); assay type: in vivo, C57BL/6 mice
# Method: (§1) For stereotaxic injection of α-synuclein PFF, 2 months old mice were anesthetized with the mixture of xylazene and ketamine. An injection cannula (26.5 gauge) was applied stereotaxically into the striatum (anteroposterior, […]; dorsoventral, 2.6 mm) unilaterally into the right hemisphere. The infusion of 2 μl α-synuclein PFF (2.5 μg/μl in PBS) or PBS was performed at a rate of 0.4 μl per min. The head skin was closed by suturing and wound healing and recovery were monitored following surgery. For stereological analysis, animals were perfused and fixed intracardially with ice-cold PBS followed by 4% paraformaldehyde at 6 months after striatal α-synuclein PFF injections. The brain was removed and processed for immunohistochemistry or immunofluorescence. Behavioral test was performed at 6 months after the unilateral striatal α-synuclein PFF injections. Treatment of Radotinib HCl was accomplished after 1 month of striatal α-synuclein PFF injections, once a day.
# Before the actual test, mice were trained for three consecutive days and each training session consists of three test trials. Briefly, the mice were placed on the top of the pole (3 in. from the top of the pole) and then total time to reach the bottom of the pole was recorded. For the test, mice went through three sessions and the total time was recorded. Results were recorded by turn down, climb down, and total time (in seconds).
# Neuromuscular strength was measured by maximum holding force generated by the mice. Mice were allowed to grasp a metal grid with their forelimbs. The tail was gently pulled and the maximum holding force recorded by the force transducer (Biosed, USA) when the mice released their grasp on the grid.
# The amphetamine treatment (5 mg/kg, Sigma-Aldrich) was intraperitoneally administered after 6 months of α-synuclein PFF injections with or without Radotinib HCl treatment. Mice were placed in individual white bowls with a diameter of 20 cm and allowed to habituate to their environment for 10 min before turns contralateral and ipsilateral to the lesion were recorded over 20 min. Full-body ipsilateral rotations (clockwise) per 1 min session were recorded for each mouse from the video recordings.
# [2] = system: α-synuclein PFF mouse model of sporadic PD; test: α-synuclein PFF mouse model: neuroinflammation (Iba-1, GFAP) in SNpc; assay type: in vivo, C57BL/6 mice
# Method: as §1
# The perfusion was performed with ice-cold PBS and fixed by 4% paraformaldehyde after deep anesthesia. Whole brains were collected, and fixed in the 4% paraformaldehyde, and incubated in cryoprotection solution (30% sucrose/PBS, pH 7.4). Brains were frozen in an optimal cutting temperature (OCT) solution and serial coronal sections (30 µm sections) were cut with a microtome. Free-floating sections were blocked with 5% goat or horse serum/PBS plus 0.2% Triton X-100 and incubated with anti-TH antibody (Novus Biologicals) or anti-pS129-α-synuclein followed by incubation with biotin-conjugated anti-rabbit antibody or anti-mouse antibody (Vector Labs). After washing three times, ABC reagents (Vector Labs) were added and sections were developed using SigmaFast 3, 3′-Diaminobenzidine (DAB) Peroxidase Substrate (Sigma-Aldrich). Sections were counterstained with Nissl (0.09% thionin). TH-positive and Nissl-positive dopaminergic neurons from the SNpc region were counted through optical fractionators, the unbiased method for cell counting. This method was carried out by using a computer-assisted image analysis system consisting of an Axiophot photomicroscope (Carl Zeiss Vision) equipped with a computer-controlled motorized stage (Ludl Electronics), a Hitachi HV C20 camera and Stereo Investigator software (MicroBright-Field). The total number of TH-stained neurons and Nissl counts was analyzed as previously described ([27],[43]). Fiber density in the striatum was analyzed by optical density (OD) measurement. […] The number of pS129-α-synuclein positive and Nissl positive in the SNpc region were measured with ImageJ software and field counting. […] The number and immunoreactivities of microglia and astrocyte in the SNpc region were measured with ImageJ software.
# [3] = system: α-synuclein PFF mouse model of sporadic PD; test: α-synuclein PFF mouse model: LB/LN-like pathology in vivo; set-up: species or system C57BL/6 mice; settings: for Accumulation of pS129-α-synuclein in SNpc TH-positive neurons: oral once a day for 5 months, 180 days after PFF
# Method: For Triton X-100 (TX, Sigma-Aldrich) soluble and insoluble fraction, cells were prepared with sequential lysis buffer. Samples were homogenized in the followed TX-soluble buffer (50 mM Tris (pH 8.0), 150 mM NaCl, 1% TX with phosphatase inhibitor cocktail and protease inhibitor cocktail) and then were centrifuged and collected the soluble supernatant. The insoluble pellet was resuspended in TX-insoluble buffer (50 mM Tris (pH 8.0), 150 mM NaCl, 1% TX, 2% SDS with phosphatase inhibitor cocktail and protease inhibitor cocktail) and then was sonicated and centrifuged at 22 000 × g for 30 min.
# Protein concentrations were determined using the BCA assay (Pierce, Rockford, IL, USA). 2X Laemmli buffer (Bio-Rad) was utilized to dilute the lysates. […] Membrane was blocked with TTBS (150 mM NaCl, 10 mM Tris–HCl (pH 7.4), 0.05% Tween 20) containing 5% skim milk for 30–60 min and incubated at 4°C overnight with primary antibodies; mouse anti-α-synuclein (610787; BD Transduction Laboratories), rabbit anti-pY245 c-Abl (2861; Cell Signaling Technology), mouse anti-c-Abl (554148; BD Transduction Laboratories), rabbit monoclonal anti-pS129 α-synuclein (ab168381; Abcam), rabbit polyclonal anti-phospho-p38 MAPK (Thr180/Tyr182) (9211; Cell Signaling Technology), rabbit polyclonal anti-p38 MAPK (A11340; Abclonal Technology) followed by HRP-conjugated rabbit or mouse secondary antibodies (1: 5000, GE Healthcare) for 1 h at room temperature. Rabbit polyclonal anti-pY39-α-synuclein antibody was generated as described previously ([13]). Protein bands were detected using chemiluminescence detection system onto X-ray film. The membranes were reprobed with HRP-conjugated β-actin antibody (1: 20 000, Sigma-Aldrich).
# (§2) Primary mouse cortical neurons were plated onto poly-D-lysine coated coverslips. 4% paraformaldehyde was used to fix the neurons, followed by blocking in a solution with 5% normal donkey serum (Jackson ImmunoResearch), 2% BSA (Sigma-Aldrich) and 0.1% TX (Sigma-Aldrich) for 30–60 min at room temperature. Floating brain tissue sections were blocked with 10% donkey serum (Jackson Immunoreserach) in PBS plus 0.2% TX for 30 min at room temperature.
# Primary antibodies, anti-pS129-α-synuclein (ab168381; Abcam), anti-TH antibody (Novus Biologicals) and anti-MAP2 (MAB3418; Millipore) were incubated at 4°C overnight. The samples were washed with PBS three times, followed by 1 h of incubation with a mixture of FITC-conjugated (Jackson ImmunoReserach) and Cy3-conjugated (Jackson ImmunoReserach) secondary antibodies at room temperature. […]
# (§3) For stereotaxic injection of α-synuclein PFF, 2 months old mice were anesthetized with the mixture of xylazene and ketamine. […] The head skin was closed by suturing and wound healing and recovery were monitored following surgery. […]
# [4] = system: BCR-Abl; settings: cited from earlier work
# [5] = system: α-synuclein PFF mouse model of sporadic PD; test: α-synuclein PFF mouse model: dopaminergic neurodegeneration and striatal TH fiber density; assay type: in vivo, C57BL/6 mice; settings: for SNpc TH- and Nissl-positive dopaminergic neurons (stereologic counting): 180 days after PFF
# Method: as §1
# The perfusion was performed with ice-cold PBS and fixed by 4% paraformaldehyde after deep anesthesia. Whole brains were collected, and fixed in the 4% paraformaldehyde, and incubated in cryoprotection solution (30% sucrose/PBS, pH 7.4). Brains were frozen in an optimal cutting temperature (OCT) solution and serial coronal sections (30 µm sections) were cut with a microtome. […] TH-positive and Nissl-positive dopaminergic neurons from the SNpc region were counted through optical fractionators, the unbiased method for cell counting. […] The total number of TH-stained neurons and Nissl counts was analyzed as previously described ([27],[43]). Fiber density in the striatum was analyzed by optical density (OD) measurement. […] The number of pS129-α-synuclein positive and Nissl positive in the SNpc region were measured with ImageJ software and field counting. […] The number and immunoreactivities of microglia and astrocyte in the SNpc region were measured with ImageJ software.
# [6] = system: primary cortical neurons; test: α-synuclein PFF-induced LB/LN-like pathology in primary cortical neurons (pS129-α-synuclein immunostaining); assay type: cell-based, C57BL/6 mice; settings: 50 nM, 250 nM and 1 μM, dose-dependent; 10 days
# Method: (§4) C57BL/6 mice were obtained from the Charles River (Wilmington, MA). Primary cortical neurons were prepared from E15.5 pups and cultured in Neurobasal media supplemented with B-27, 0.5 mM L-glutamine, penicillin and streptomycin (Invitrogen, Grand Island, NY) on 24-well tissue culture plates coated with poly-D-lysine. Radotinib HCl was added to neurons for 30 min and α-synuclein PFF (final concentration 1 μg/ml) was further incubated as described (10 or 14 days) followed by Immunocytochemistry and biochemical or toxicity assays. Radotinib HCl was added to neurons three times a week before the assays.
# as §2
# Primary antibodies, anti-pS129-α-synuclein (ab168381; Abcam), anti-TH antibody (Novus Biologicals) and anti-MAP2 (MAB3418; Millipore) were incubated at 4°C overnight. […]
# [7] = system: c-Abl; test: α-synuclein PFF mouse model: c-Abl activation and p38 MAPK phosphorylation in brain (Western blot); assay type: in vivo, C57BL/6 mice
# Method: The mouse brain tissues were homogenized and prepared in lysis buffer (10 mM Tris–HCL, pH 7.4, 150 mM NaCl, 5 mM EDTA, 0.5% Nonidet P-40, 10 mM Na-β-glycerophosphate, phosphatase inhibitor cocktail (Sigma-Aldrich) and complete protease inhibitor mixture (Roche)), using a Diax 900 homogenizer (Sigma-Aldrich). After homogenization, samples were rotated at 4°C for 30 min for complete lysis, the homogenate was centrifuged at 22 000 × g for 30 min and the supernatants were collected.
# (§5) Protein concentrations were determined using the BCA assay (Pierce, Rockford, IL, USA). 2X Laemmli buffer (Bio-Rad) was utilized to dilute the lysates. […] Protein bands were detected using chemiluminescence detection system onto X-ray film. […]
# as §3
# [8] = system: primary cortical neurons; test: α-synuclein PFF-induced neuronal toxicity (TUNEL, Alamar Blue); assay type: cell-based, C57BL/6 mice; settings: α-synuclein PFF 14 days; 50, 250, 1000 nM
# Method: as §4
# Cell viability was tested via two methods; In Situ Cell Death Detection Kit (Roche) for TUNEL assay and Alamar Blue assay (Thermo Fisher). […] Cell death was assessed through the TUNEL assay, according to the manufacturer’s protocol. For Alamar Blue assay, after adding Alamar Blue solution for 4 h, cell viability was determined by fluorescence at excitation wavelength 570 nm and emission wavelength 585 nm.
# [9] = system: c-Abl; test: α-synuclein PFF-induced c-Abl activation in primary cortical neurons (Western blot); assay type: cell-based, C57BL/6 mice; settings: 1 μM
# Method: as §4
# After washing two times with PBS, primary cortical neurons were harvested and then lysed with RIPA lysis buffer (Thermo Scientific) with phosphatase inhibitor cocktail (Sigma-Aldrich) and complete protease inhibitor mixture (Roche) for 30 min in ice. The lysate is then homogenized and centrifuged at 22 000 × g for 30 min.
# as §5
# [10] = system: primary cortical neurons; test: Oxygen consumption rate (Seahorse XF24) in α-synuclein PFF-treated primary cortical neurons; assay type: cell-based, mouse; settings: 1 μM, 14 days
# Method: OCR was determined using the Seahorse XF24 Extracellular Flux Analyzer and the XF Cell Mito Stress Test Kit according to the manufacturer’s instruction (Agilent Technologies, Santa Clara, CA) ([42]). Briefly, primary mouse cortical neurons were plated in a XF24 cell culture microplate coated with poly-D-lysine. Cells were washed once with XF Assay Media, pre-incubated in a non-CO2 incubator at 37°C for 30 min in XF Assay Media. For the assay, cells were treated sequentially with 1 μM Oligomycin, 2 μM carbonyl cyanide-p-trifluoromethoxyphenylhydrazone (FCCP), and 1 μM Rotenone plus 1 μM Antimycin A. Oligomycin inhibits ATP synthase (complex V) to measure ATP production and proton leak. FCCP uncouples oxygen consumption from ATP production enables to measure maximal respiration. Rotenone and antimycin A inhibit complexes I and III and shut down mitochondrial respiration. Basal respiration was calculated using the mean of the OCR measurements before oligomycin injection minus the mean of the OCR measurements after rotenone and antimycin A injection, and maximal respiration was defined as the difference between the mean of the OCR measurements after FCCP injection and the mean of the OCR measurements after rotenone and antimycin A injection.
# [11] = low (3), mid (10) and high (30 mg/kg) doses oral, 6 months after PFF
# [12] = mid (10 mg/kg) and high (30 mg/kg) doses oral
smiles,measurement,setting,value
Cc1cn(-c2cc(NC(=O)c3ccc(C)c(Nc4nccc(-c5cccnc5)n4)c3)cc(C(F)(F)F)c2)cn1 [Nilotinib],Behavioral deficits in the α-synuclein PFF mouse model,[1]; high dose (30 mg/kg) oral,protected against the behavioral deficits
same,Astrocyte activation (GFAP) in SNpc,[2]; high dose (30 mg/kg) oral,significantly decreased
same,Iba-1 immunoreactivity and microglial density in SNpc,[2]; high dose (30 mg/kg) oral,significantly reduced
same,"Reduction of TX-insoluble α-synuclein aggregate species, pS129- and pY39-α-synuclein compared to Radotinib HCl",[3]; high dose (30 mg/kg) oral,less effect
same,Accumulation of pS129-α-synuclein in SNpc TH-positive neurons,[3]; high dose (30 mg/kg),significantly decreased
same,SNpc TH- and Nissl-positive dopaminergic neurons (stereologic counting),[5]; high dose (30 mg/kg) oral,dramatic preservation
Cc1cn(-c2cc(NC(=O)c3ccc(C)c(Nc4nccc(-c5cnccn5)n4)c3)cc(C(F)(F)F)c2)cn1 [Radotinib HCl],LB/LN-like pathology induced by α-synuclein PFF (pS129-α-synuclein immunostaining),[6],significantly decreased
same,Grip strength (neuromuscular strength reduced by α-synuclein PFF),[1]; [11],restored
same,Pole test latency induced by α-synuclein PFF,[1]; [11],significantly restored
same,Amphetamine-induced full body ipsilateral rotations,"[1]; mid (10 mg/kg) and high (30 mg/kg) doses oral, amphetamine 5 mg/kg I.P.",reduced
same,Astrocyte activation (GFAP) in SNpc,[2]; [12],significantly decreased
same,Iba-1 immunoreactivity and microglial density in SNpc,[2]; [12],significantly reduced
same,"TX-insoluble α-synuclein aggregates species, pS129-α-synuclein and pY39-α-synuclein levels in ventral midbrain","[3]; 3, 10, 30 mg/kg oral, dose-dependent",significantly reduced
same,Accumulation of pS129-α-synuclein in SNpc TH-positive neurons,[3]; mid (10 mg/kg) and high (30 mg/kg) doses,significantly decreased
same,Increase in phosphorylation of c-Abl (Y245) and of p38 MAPK in α-synuclein PFF-injected mice,[7]; Supplementary Fig. S1,reversed
same,"c-Abl activation, TX-insoluble α-synuclein aggregates, phosphorylation of Y39-α-synuclein and p38 MAPK, compared to Nilotinib-treated mice",[7]; α-synuclein PFF-injected mice,substantially decreased
same,"α-synuclein PFF neuronal toxicity, Alamar blue assay",[8],significantly attenuated
same,"α-synuclein PFF neuronal toxicity, TUNEL staining",[8],significantly attenuated
same,IC50,[4],0.034 µM
same,c-Abl activation induced by α-synuclein PFF (pY245-c-Abl),"[9]; α-synuclein PFF 1 μg/ml, primary cortical neurons",significantly decreased
same,Level of pY39-α-synuclein,[9]; α-synuclein PFF-treated primary cortical neurons,significantly decreased
same,Basal respiration rate (BRR),[10],markedly restored
same,Maximal respiration rate (MRR),[10],markedly restored
same,α-synuclein PFF-induced reduction in striatal TH-fiber density,"[5]; low (3), mid (10) and high (30 mg/kg) doses oral",significantly rescued
same,SNpc TH- and Nissl-positive dopaminergic neurons (stereologic counting),[5]; [12],dramatic preservation
